Laboratory results as given in patent publication US20260374754A1, “N-((ISOQUINOLIN-6-YL)METHYL)-1H-PYRAZOLE-4-CARBOXAMIDE DERIVATIVES AS PLASMA KALLIKREIN INHIBITORS FOR THE TREATMENT OF HEREDITARY ANGIODEMA” (Takeda Pharmaceutical Company Limited, priority 2022, published 2026).
Structures can show the parent of a compound that is named as a salt.

Target: human activated kallikrein enzyme (Homo sapiens, UniProt P03952)
Test: Inhibition of human activated plasma kallikrein, fluorogenic PFR-AMC substrate, 500 pM enzyme format
Format: biochemical
Conditions: 500 pM activated kallikrein; 300 μM PFR-AMC; 30 min preincubation; 10 min room temperature; pH 7.5; read-out: Primary Dose Response Assay: Average EC50
Procedure: Compounds were evaluated for inhibition of the human activated kallikrein enzyme in two formats of an assay employing a fluorogenic peptide substrate. In one assay format, the concentrations of reagents were as follows: 20 mM Tris pH 7.5, 1 mM EDTA, 150 mM sodium chloride, 0.1% PEG-400, 0.1% Triton X-100, 500 pM activated kallikrein enzyme, 300 μM Pro-Phe-Arg-7-amido-4-methylcoumarin (PFR-AMC) substrate. Prior to reaction initiation with substrate, enzyme and inhibitors were preincubated for 30 min at room temperature. After initiation with substrate, reactions were incubated for 10 min at room temperature and fluorescence emission at 460 nm from 380 nm excitation measured with a microplate reader. In another assay format, the concentrations of reagents were as follows: 20 mM Tris pH 7.5, 1 mM EDTA, 150 mM sodium chloride, 0.1% PEG-400, 0.1% Triton X-100, 5 pM activated kallikrein enzyme, 300 uM PFR-AMC substrate. Prior to reaction initiation with substrate, enzyme and inhibitors were preincubated for 30 min at room temperature. After initiation with substrate, reactions were incubated for 18 hr at room temperature and fluorescence emission at 460 nm from 380 nm excitation measured with a microplate reader.
Table 35 provides the results of the assay in the format with 500 pM activated kallikrein assay.

Sequence of human activated kallikrein enzyme (P03952 391-638 limits assumed): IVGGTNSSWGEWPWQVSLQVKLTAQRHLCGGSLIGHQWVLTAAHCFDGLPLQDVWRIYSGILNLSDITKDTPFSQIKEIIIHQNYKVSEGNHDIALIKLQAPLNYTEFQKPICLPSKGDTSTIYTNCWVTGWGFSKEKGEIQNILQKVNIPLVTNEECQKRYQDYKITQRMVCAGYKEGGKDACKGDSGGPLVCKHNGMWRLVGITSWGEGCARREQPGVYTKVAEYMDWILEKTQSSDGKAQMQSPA
Sequence of human activated kallikrein enzyme (P03952 20-390 partner limits assumed): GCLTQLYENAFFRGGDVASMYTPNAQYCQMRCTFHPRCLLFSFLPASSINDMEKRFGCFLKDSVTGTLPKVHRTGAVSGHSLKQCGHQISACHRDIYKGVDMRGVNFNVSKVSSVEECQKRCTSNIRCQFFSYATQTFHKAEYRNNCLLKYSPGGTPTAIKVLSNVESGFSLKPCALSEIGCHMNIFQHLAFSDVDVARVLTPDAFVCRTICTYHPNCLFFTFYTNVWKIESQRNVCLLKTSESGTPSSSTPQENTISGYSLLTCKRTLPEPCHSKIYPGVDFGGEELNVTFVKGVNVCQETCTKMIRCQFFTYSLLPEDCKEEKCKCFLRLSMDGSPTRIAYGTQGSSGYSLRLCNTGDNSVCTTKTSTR

Structure (SMILES) | EC50
Cc1cc2c(N)nccc2c(C)c1CNc1cc(NCc2ccc(Cc3nccs3)cc2)ncn1 [Example 362, N^4-((1-amino-5,7-dimethylisoquinolin-6-yl)methyl)-N^6-(4-(thiazol-2-ylmethyl)benzyl)pyrimidine-4,6-diamine] | < 1 nM
COc1c(F)cccc1Cc1ccc(Cn2cc(C(=O)NCc3c(C)cc4c(N)nccc4c3C)cn2)cc1 [Example 116, N-((1-amino-5,7-dimethylisoquinolin-6-yl)methyl)-1-(4-(3-fluoro-2-methoxybenzyl)benzyl)-1H-pyrazole-4-carboxamide] | 1 to 10 nM
CCOC(=O)CCc1nc(NCc2c(C)cc3c(N)nccc3c2C)cc(OCc2cn3cc(C4CC4)ccc3n2)n1 [Example 274, ethyl 3-(4-(((1-amino-5,7-dimethylisoquinolin-6-yl)methyl)amino)-6-((6-cyclopropylimidazo[1,2-a]pyridin-2-yl)methoxy)pyrimidin-2-yl)propanoate] | 1 to 10 nM
Cc1cc2c(N)nccc2c(C)c1CNC(=O)c1cnn(Cc2cc3c(Cl)cccc3s2)c1 [Example 62, N-((1-amino-5,7-dimethylisoquinolin-6-yl)methyl)-1-((4-chlorobenzo[b]thiophen-2-yl)methyl)-1H-pyrazole-4-carboxamide] | 1 to 10 nM
Cc1ccnc(Cc2ccc(CNc3cc(NCc4c(C)cc5c(N)nccc5c4C)ncn3)cc2)c1 [Example 364, N^4-((1-amino-5,7-dimethylisoquinolin-6-yl)methyl)-N^6-(4-((4-methylpyridin-2-yl)methyl)benzyl)pyrimidine-4,6-diamine] | < 1 nM
Cc1cc2c(N)nccc2c(C)c1CNc1cc(OC(C)c2ccc3ncc(Cl)cc3c2)cnn1 (stereo not shown) [Example 420, 6-(((5-(1-(3-chloroquinolin-6-yl)ethoxy)pyridazin-3-yl)amino)methyl)-5,7-dimethylisoquinolin-1-amine formic acid salt] | < 1 nM
Cc1cc2c(N)nccc2c(C)c1CNC(=O)c1cnn(Cc2cccnc2)c1 [Example 88, N-((1-amino-5,7-dimethylisoquinolin-6-yl)methyl)-1-(pyridin-3-ylmethyl)-1H-pyrazole-4-carboxamide] | 10 to 100 nM
Cc1cc2c(N)nccc2c(C)c1CNc1cc(OCc2ccc3c(cnn3C)c2)cnn1 [Example 413, 5,7-dimethyl-6-(((5-((1-methyl-1H-indazol-5-yl)methoxy)pyridazin-3-yl)amino)methyl)isoquinolin-1-amine] | 1 to 10 nM
Cc1cc2c(N)nccc2c(C)c1CNC(=O)c1cnn(C(F)(F)c2ccc(Br)cc2)c1 [Example I-469, N-((1-amino-5,7-dimethylisoquinolin-6-yl)methyl)-1-((4-bromophenyl)difluoromethyl)-1H-pyrazole-4-carboxamide] | 100 to 1000 nM
CCOC(=O)[C@H]1[C@@H]2CN(C(=O)Cc3ccc(Cn4cc(C(=O)NCc5c(C)cc6c(N)nccc6c5C)cn4)cc3)C[C@@H]21 [Example 212, ethyl (1R,SS,6r)-3-(2-(4-((4-(((1-amino-5,7-dimethylisoquinolin-6-y1)methyl)carbamoyl)-1H-pyrazol-1-yl)methyl)phenyl)acetyl)-3-azabicyclo[3.1.0]hexane-6-carboxylate] | 10 to 100 nM
COc1ccc2nc(Cl)c(Cn3cc(C(=O)NCc4c(C)cc5c(N)nccc5c4C)cn3)cc2c1 [Example 109, N-((1-amino-5,7-dimethylisoquinolin-6-yl)methyl)-1-((2-chloro-6-methoxyquinolin-3-yl)methyl)-1H-pyrazole-4-carboxamide] | 1 to 10 nM
Cc1cc2c(N)nccc2c(C)c1CNc1cc(OCc2cn3nc(C4CC4)cc(CN4CCCC4)c3n2)ncn1 [Example 394, 6-(((6-((6-cyclopropyl-8-(pyrrolidin-1-ylmethyl)imidazo[1,2-b]pyridazin-2-yl)methoxy)pyrimidin-4-yl)amino)methyl)-5,7-dimethylisoquinolin-1-amine] | < 1 nM
Cc1c(CN)c(C2(C)CC2)cc2c(Nc3cc(OCc4cn5cc(C6CC6)ccc5n4)ncn3)nccc12 [Example 255, 6-(aminomethyl)-N-(6-((6-cyclopropylimidazo[1,2-a]pyridin-2-yl)methoxy)pyrimidin-4-yl)-5-methyl-7-(1-methylcyclopropyl)isoquinolin-1-amine] | 100 to 1000 nM
CCCCc1cc(COc2cc(NCc3c(C)cc4c(N)nccc4c3C)ncn2)cc2cc(Cl)c[n+]([O-])c12 [Example 399, 6-(((6-(((1-amino-5,7-dimethylisoquinolin-6-yl)methyl)amino)pyrimidin-4-yl)oxy)methyl)-8-butyl-3-chloroquinoline 1-oxide] | 10 to 100 nM
Cc1cc2c(N)nccc2c(C)c1CNc1cc(N(Cc2cn3nc(C4CC4)ccc3n2)CC(F)(F)F)ncn1 [Example 516, N^4-((1-amino-5,7-dimethylisoquinolin-6-yl)methyl)-N^6-((6-cyclopropylimidazo[1,2-b]pyridazin-2-yl)methyl)-N6-(2,2,2-trifluoroethyl)pyrimidine-4,6-diamine] | 10 to 100 nM
Cc1cc2c(N)nccc2c(C)c1CNc1cc(OCc2ccc(-n3ccccc3=O)cc2)ncn1 [Example 296, 1-(4-(((6-(((1-amino-5,7-dimethylisoquinolin-6-yl)methyl)amino)pyrimidin-4-yl)oxy)methyl)phenyl)pyridin-2(1H)-one] | 10 to 100 nM
CCc1cccc2nc(Cn3cc(C(=O)NCc4c(C)cc5c(N)nccc5c4C)cn3)cn12 [Example 140, N-((1-amino-5,7-dimethylisoquinolin-6-yl)methyl)-1-((5-ethylimidazo[1,2-a]pyridin-2-yl)methyl)-1H-pyrazole-4-carboxamide] | < 1 nM
Cc1cc2nc(Cn3cc(C(=O)NCc4c(C)cc5c(N)nccc5c4C)cn3)cn2cc1Br [Example 135, N-((1-amino-5,7-dimethylisoquinolin-6-yl)methyl)-1-((6-bromo-7-methylimidazo[1,2-a]pyridin-2-yl)methyl)-1H-pyrazole-4-carboxamide] | < 1 nM
Cc1cc2c(N)nccc2c(C)c1CNC(=O)c1cnn(Cc2ccc(CC(N)=O)cc2)c1 [Example 231, 1-(4-(2-amino-2-oxoethyl)benzyl)-N-((1-amino-5,7-dimethylisoquinolin-6-yl)methyl)-1H-pyrazole-4-carboxamide] | 10 to 100 nM
Cc1cc2c(N)nccc2c(C)c1CNC(=O)c1cnn(Cc2ccccc2C#N)c1 [Example 32, N-((1-amino-5,7-dimethylisoquinolin-6-yl)methyl)-1-(2-cyanobenzyl)-1H-pyrazole-4-carboxamide] | 100 to 1000 nM
Cc1cc2c(N)nccc2c(C)c1CNC(=O)c1cn(Cc2cn3cc(C4CC4)ccc3n2)nc1C(F)F [Example 199, N-((1-amino-5,7-dimethylisoquinolin-6-y1)methyl)-1-((6-cyclopropylimidazo[1,2-a]pyridin-2-y1)methyl)-3-(difluoromethyl)-1H-pyrazole-4-carboxamide] | < 1 nM
Cc1cc2c(N)nccc2c(C)c1CNC(=O)c1cnn(Cc2ccc(N(C)C(=O)N(C)C)cc2)c1 [Example 22, N-((1-amino-5,7-dimethylisoquinolin-6-yl)methyl)-1-(4-(1,3,3-trimethylureido)benzyl)-1H-pyrazole-4-carboxamide] | 1 to 10 nM
Cc1cc2c(N)nccc2c(C)c1CNc1cc(OCc2cc3cc(Cl)ccc3s2)cnn1 [Example 417, 6-(((5-((5-chlorobenzo[b]thiophen-2-yl)methoxy)pyridazin-3-yl)amino)methyl)-5,7-dimethylisoquinolin-1-amine, formic acid salt] | 1 to 10 nM
Cc1cc2c(N)nccc2c(C)c1CNc1nccc2cn(Cc3ccc(Cn4cccn4)cc3)nc12 [Example 260, 6-(((2-(4-((1H-pyrazol-1-yl)methyl)benzyl)-2H-pyrazolo[3,4-c]pyridin-7-yl)amino)methyl)-5,7-dimethylisoquinolin-1-amine] | 1 to 10 nM
Cc1cc2c(N)nccc2c(C)c1CNc1cc(NCc2ccc(OCC(=O)N3CCCCC3)cc2)ncn1 [Example 346, 2-(4-(((6-(((1-amino-5,7-dimethylisoquinolin-6-yl)methyl)amino)pyrimidin-4-yl)amino)methyl)phenoxy)-1-(piperidin-1-yl)ethan-1-one] | 1 to 10 nM
Cc1cccc(Cn2cc(C(=O)NCc3c(C)cc4c(N)nccc4c3C)cn2)c1 [Example 41, N-((1-amino-5,7-dimethylisoquinolin-6-yl)methyl)-1-(3-methylbenzyl)-1H-pyrazole-4-carboxamide] | 10 to 100 nM
Cc1cc2c(N)nccc2c(C)c1CNc1cc(OCc2cn3cc(C4CC4)ccc3n2)nc(C(=O)O)n1 [Example 487, 4-(((1-amino-5,7-dimethylisoquinolin-6-yl)methyl)amino)-6-((6-cyclopropylimidazo[1,2-a]pyridin-2-yl)methoxy)pyrimidine-2-carboxylic acid] | < 1 nM

Same assay, conditions: Primary Dose Response Assay: Average EC50, 500 pM activated kallikrein; 300 μM PFR-AMC; 30 min preincubation; 10 min room temperature; pH 7.5

Structure (SMILES) | EC50
Cc1cc2c(N)nccc2c(C)c1CNc1cc(NCc2ccc(CC(=O)N(C)C)cc2)ncn1 [Example 375, 2-(4-(((6-(((1-amino-5,7-dimethylisoquinolin-6-yl)methyl)amino)pyrimidin-4-yl)amino)methyl)phenyl)-N,N-dimethylacetamide] | < 1 nM
